Laboratory results: patent publication US10618937B2, “Method of treating Alzheimer's disease” (INDUSTRY-ACADEMIC COOPERATION FOUNDATION GYEONGSANG …, priority 2016, dated 2020)

Experiments:
[1] = tested on: APP-transfected SH-SY5Y cells; test: MTT assay, cell viability of APP-transfected SH-SY5Y cells; assay type: cell-based, human; conditions: 0.5, 1, 5, 10 and 20 μM, 4 hours, compared to the untreated APP group
Protocol: The human APPswe/ind gene under the transcriptional control of the SV40 promoter/enhancer linked to the pCAX mammalian expression vector was obtained from addgene; The gene was deposited in the APP reservoir by Dennis Solkoe (plasmid 30145). The plasmid was amplified by DH5alpha strain in LB medium containing 50 μg/ml of ampicillin. The plasmid was purified by using a Qiagen plasmid mini kit (Cat #12143) and digested with EcoRV restriction enzyme and confirmed. The human neuroblastoma cell line SHYSY5Y used in the present in vitro experiments was cultured in DMEM medium containing 10% fetal bovine serum and 1% penicillin-streptomycin antibiotic (stock solutions concentrations of 10,000 U and 10,000 μg/ml, respectively)).
SH-SY5Y cells and HT-22 cells were inoculated into a culture flask containing the medium, and cultured until reaching the confluency of 70% to 75%. The pCAX vector with the APPswe/ind gene was transfected for 48 hours by using Lipofectamine 3000 (Life technologies) according to the manufacturers instructions.
APPswe/ind transfected SH-SY5Y cells were treated with novel peptide for 4 hours, followed by 3-[4, 5-dimethylthiazol-2-yl]-2,5-diphenyl tetrazolium bromide (MTT) analysis and Western blot analysis.
MTT assay was performed to measure the survival rate of cells treated with various concentrations of adiponectin receptor-activating novel peptide (5AA1). The cells were inoculated at 1×10^5 cells/well in a 96-well plate containing 200 μl of Dulbecco's modified Eagle's medium (DMEM). After 70% of cell confluence, SH-SY5Y cells were treated with 0.5 μM, 1 μM, 5 μM, 10 μM, and 20 μM of adiponectin receptor-activating novel peptide, and then cultured for 4 hours. At the end of the treatment, MTT (5 mg/ml in PBS) was added to each well, and the plate was cultured at a temperature of 37° C. for 4 hours. The formazan dissolved in dimethyl sulfoxide (DMSO) was added to the well and the plate was stirred in the agitator for 10 to 20 minutes. Then, the absorbance was measured at a wavelength of 550 nm to 570 nm (L1) and 620 nm to 650 nm (L2) by using a scanning microplate reader.
The L2 absorbance was measured for cell residuals and well imperfections, and the corrected absorbance (Abs.=L1−L2) of each well was calculated from 100× the absorbance of treated well/absorbance of the control well, and was used to measure the cell viability.

[2] = tested on: APP/PS1 mice; test: Thioflavin S staining / immunofluorescence analysis of amyloid plaques in brain; assay type: in vivo; conditions: cortex of APP/PS1 mice, compared to Veh-injected APP/PS1 mice, P<0.001
Protocol: Adiponectin receptor-activating novel peptide (5AA1) was IP administered to 10 week old APP/PS1 mice once every 2.5 days for 45 days, and then, to prepare a slide section, the brains of the mice were fixed by transcardial perfusion of ice-cold 4% paraformaldehyde. The brains were fixed in 4% paraformaldehyde for 72 hours, and then, transferred to 20% sucrose and maintained at a temperature of 4° C. for 72 hours. The brains were placed in an optimal cutting temperature (OCT) compound (A.O., USA), frozen in liquid nitrogen, and sectioned into coronal plane (14 μm) in CM 3050C cryostat (Leica, Germany). Pictures of tissue sections were taken on ProbeOn Plus charged slides (Fisher, USA).
Immunofluorescence analysis was performed by using minor modifications of the method described in the existing study (Shah et al., 2014; Shah et al., 2015). Slides containing tissue sections were washed twice with a 0.01 M PBS solution for 15 minutes. Proteinase K was added to the tissue sections, which were then cultured at a temperature of 37° C. for 5 minutes. The tissue sections were then reacted in a blocking solution (5% normal goat serum, 0.3% Triton X-100, PBS) for 1 hour. The slides were reacted overnight with the primary antibody (the same antibody used in the ‘Western blot analysis’) and then reacted with secondary TRITC- or FITC-conjugated antibodies (diluted 1:50 in PBS; Santa Cruz) at room temperature for 90 minutes. The slides were dipped in Prolong Antifade reagent (Molecular Probe, Eugene, Oreg., USA) and stained. All stained slides were analyzed with a confocal laser scanning microscope (Flouview FV 1000). Amyloid plaques were visualized in brain slices after Thioflavin S staining. The brain slices were washed twice with 0.01 M PBS for 10 minutes, and then immersed in fresh 1% Thioflavin S solution at room temperature for 10 minutes. The brain slices were then immersed in 70% ethanol for 5 minutes, then washed twice with water, counterstained with propidium iodide (PI) and covered with cover glass.
Morphological analysis and signals were analyzed with Image J software (open source software provided by the US NIH), and the analysis results were expressed as IOD (Integral Optical Density). The ratio of the amyloid deposit site in the proposed area was also quantified by using Image-J software.

GPCWP (adiponectin receptor-activating peptide) [5AA4]
cell viability [1]: increased compared to the APP group, although the increase was not dependent on concentration | integrated density of the Aβ plaques in the cortex (Thioflavin S) [2]: significantly reduced

GPCYP (adiponectin receptor-activating peptide) [5AA3]
cell viability [1]: increased compared to the APP group, although the increase was not dependent on concentration | integrated density of the Aβ plaques in the cortex (Thioflavin S) [2]: significantly reduced

GPWGP (adiponectin receptor-activating peptide) [5AA2]
cell viability [1]: concentration-dependently increased | integrated density of the Aβ plaques in the cortex (Thioflavin S) [2]: significantly reduced
